Experimental data reported in ChEMBL document CHEMBL5518196, “Discovery of potent thiazolidin-4-one sulfone derivatives for inhibition of proliferation of osteosarcoma in vitro and in vivo” (Eur J Med Chem, 2024).
Active and inactive are the calls of the source. No cut-off for these calls is given here.

Tests used:
HOS-TE85 [1] = experiment: Antiproliferative activity against human MNNG/HOS cells assessed as inhibition of cell growth incubated for 72 hrs by CCK8 assay; format: functional, cell-based; conditions: HOS-TE85, 72 h
[2] = Metabolic stability in human liver microsomes assessed as half-life at 0.1 uM preincubated for 10 mins followed by NADPH addition and measured upto 60 mins by LC-MS/MS analysis; format: ADME, Microsome; conditions: time < 70 min
[3] = Metabolic stability in human liver microsomes assessed as bioavailability at 0.1 uM preincubated for 10 mins followed by NADPH addition and measured upto 60 mins by LC-MS/MS analysis; format: ADME, Microsome; conditions: time < 70 min
[4] = Metabolic stability in mouse liver microsomes assessed as half-life at 0.1 uM preincubated for 10 mins followed by NADPH addition and measured upto 60 mins by LC-MS/MS analysis; format: ADME, Microsome; conditions: time < 70 min
HOS-TE85 [5] = experiment: Antiproliferative activity against human MNNG/HOS cells assessed as inhibition of cell growth incubated for 24 to 72 hrs by CellTiter-Glo luminescent cell viability assay; format: functional, cell-based
HOS-TE85 [6] = experiment: Inhibition of colony formation in human MNNG/HOS cells at 4 uM incubated for 10 days by crystal violet staining based light microscopic analysis; format: functional, cell-based; conditions: time 10.0 day
HOS-TE85 [7] = experiment: Antitumor activity against human MNNG/HOS cells xenografted in female BALB/c mouse assessed as tumor growth inhibition at 30 mg/kg, po administered twice daily for 23 days relative to control; format: functional; conditions: HOS-TE85, 552 h, time 23 day, read-out: TGI
[8] = Half-life in male Wistar rat at 100 mg/kg, po; conditions: in vivo
143B = experiment: Antiproliferative activity against human 143B cells assessed as inhibition of cell growth incubated for 72 hrs by CCK8 assay; format: functional, cell-based
SAOS-2 = experiment: Antiproliferative activity against human SAOS-2 cells assessed as inhibition of cell growth incubated for 72 hrs by CCK8 assay; format: functional, cell-based; conditions: SAOS-2, 72 h
SJSA-1 = experiment: Antiproliferative activity against human SJSA-1 cells assessed as inhibition of cell growth incubated for 72 hrs by CCK8 assay; format: functional, cell-based; conditions: SJSA-1, 72 h
MGC-803 = experiment: Antiproliferative activity against human MGC-803 cells assessed as inhibition of cell growth incubated for 72 hrs by CCK8 assay; format: functional, cell-based; conditions: MGC-803, 72 h
MG-63 = experiment: Antiproliferative activity against human MG-63 cells assessed as inhibition of cell growth incubated for 72 hrs by CCK8 assay; format: functional, cell-based; conditions: MG-63, 72 h
A549 = experiment: Antiproliferative activity against human A549 cells assessed as inhibition of cell growth incubated for 72 hrs by CCK8 assay; format: functional, cell-based; conditions: A549, 72 h
[9] = Antiproliferative activity against BMSC (unknown origin) assessed as inhibition of cell growth incubated for 72 hrs by CCK8 assay; format: functional, cell-based
PC-3 = experiment: Antiproliferative activity against human PC-3 cells assessed as inhibition of cell growth incubated for 72 hrs by CCK8 assay; format: functional, cell-based; conditions: PC-3, 72 h
HOS-TE85 [10] = experiment: Potency index, ratio of sorafenib IC50 to test compound IC50 for antiproliferative activity against human MNNG/HOS cells; format: functional
HOS-TE85 [11] = experiment: Inhibition of colony formation in human MNNG/HOS cells incubated for 10 days by crystal violet staining based light microscopic analysis; format: functional, cell-based; conditions: dose 0.1-0.4 µM, time 10.0 day
HOS-TE85 [12] = experiment: Inhibition of cell migration in human MNNG/HOS cells assessed as reduction in closure rate at 0.2 uM incubated for 24 hrs by wound healing assay; format: functional, cell-based
[13] = Clearance in male ICR mouse at 12.5 mg/kg, iv measured after 24 hrs by LC-MS/MS analysis; format: ADME, organism-based; conditions: in vivo
[14] = Cmax in male ICR mouse at 12.5 mg/kg, iv measured after 24 hrs by LC-MS/MS analysis; format: ADME, organism-based; conditions: in vivo
[15] = Half-life in male ICR mouse at 12.5 mg/kg, iv measured after 24 hrs by LC-MS/MS analysis; format: ADME, organism-based; conditions: in vivo
[16] = AUC (0 to infinity) in male ICR mouse at 12.5 mg/kg, iv measured after 24 hrs by LC-MS/MS analysis; format: ADME, organism-based; conditions: in vivo
[17] = Cmax in male ICR mouse at 62.5 mg/kg, ip measured after 24 hrs by LC-MS/MS analysis; format: ADME, organism-based; conditions: in vivo
[18] = Half-life in male ICR mouse at 62.5 mg/kg, ip measured after 24 hrs by LC-MS/MS analysis; format: ADME, organism-based; conditions: in vivo
[19] = AUC (0 to infinity) in male ICR mouse at 62.5 mg/kg, ip measured after 24 hrs by LC-MS/MS analysis; format: ADME, organism-based; conditions: in vivo
[20] = Bioavailability in male ICR mouse at 62.5 mg/kg, ip measured after 24 hrs by LC-MS/MS analysis; format: ADME, organism-based; conditions: in vivo
HOS-TE85 [21] = experiment: Antitumor activity against human MNNG/HOS cells xenografted in female BALB/c mouse assessed as tumor growth inhibition at 62.5 mg/kg, ip administered twice daily for 23 days relative to control; format: functional; conditions: HOS-TE85, 552 h, time 23 day, read-out: TGI
HOS-TE85 [22] = experiment: Antitumor activity against human MNNG/HOS cells xenografted in female BALB/c mouse assessed as reduction in tumor volume at 62.5 mg/kg, ip administered twice daily for 23 days; format: functional, organism-based; conditions: time 23.0 day
[23] = Toxicity in female BALB/c mouse xenografted with human MNNG/HOS cells assessed as effect on heart morphology at 62.5 mg/kg, ip administered twice daily for 23 days by Hematoxylin and Eosin staining based analysis; format: organism-based, HOS-TE85; conditions: in vivo, 552 h, time 23 day
[24] = Toxicity in female BALB/c mouse xenografted with human MNNG/HOS cells assessed as effect on liver morphology at 62.5 mg/kg, ip administered twice daily for 23 days by Hematoxylin and Eosin staining based analysis; format: organism-based, HOS-TE85; conditions: in vivo, 552 h, time 23 day
[25] = Toxicity in female BALB/c mouse xenografted with human MNNG/HOS cells assessed as effect on spleen morphology at 62.5 mg/kg, ip administered twice daily for 23 days by Hematoxylin and Eosin staining based analysis; format: organism-based, HOS-TE85; conditions: in vivo, 552 h, time 23 day
[26] = Toxicity in female BALB/c mouse xenografted with human MNNG/HOS cells assessed as effect on kidney morphology at 62.5 mg/kg, ip administered twice daily for 23 days by Hematoxylin and Eosin staining based analysis; format: organism-based, HOS-TE85; conditions: in vivo, 552 h, time 23 day
[27] = Toxicity in female BALB/c mouse xenografted with human MNNG/HOS cells assessed as effect on heart weight at 62.5 mg/kg, ip administered twice daily for 23 days; format: organism-based, HOS-TE85; conditions: in vivo, 552 h, time 23 day
[28] = Toxicity in female BALB/c mouse xenografted with human MNNG/HOS cells assessed as effect on liver weight at 62.5 mg/kg, ip administered twice daily for 23 days; format: organism-based, HOS-TE85; conditions: in vivo, 552 h, time 23 day
[29] = Toxicity in female BALB/c mouse xenografted with human MNNG/HOS cells assessed as effect on spleen weight at 62.5 mg/kg, ip administered twice daily for 23 days; format: organism-based, HOS-TE85; conditions: in vivo, 552 h, time 23 day
[30] = Toxicity in female BALB/c mouse xenografted with human MNNG/HOS cells assessed as effect on kidney weight at 62.5 mg/kg, ip administered twice daily for 23 days; format: organism-based, HOS-TE85; conditions: in vivo, 552 h, time 23 day
HOS-TE85 [31] = experiment: Induction of cell cycle arrest in human MNNG/HOS cells incubated for 24 hrs bby PI/RNase A staining based analysis; format: functional
HOS-TE85 [32] = experiment: Induction of apoptosis in human MNNG/HOS cells at 0.11 to 0.44 uM incubated for 24 hrs by Annexin V-FITC/PI staining based analysis; format: functional, cell-based; conditions: dose 0.11-0.44 µM
HOS-TE85 [33] = experiment: Induction of apoptosis in human MNNG/HOS cells assessed as effect on Bcl-2 level incubated for 24 hrs by Western blot analysis; format: functional, cell-based
HOS-TE85 [34] = experiment: Induction of apoptosis in human MNNG/HOS cells assessed as effect on Bax level incubated for 24 hrs by Western blot analysis; format: functional, cell-based
HOS-TE85 [35] = experiment: Induction of apoptosis in human MNNG/HOS cells assessed as effect on caspase-3 level incubated for 24 hrs by Western blot analysis; format: functional, cell-based
HOS-TE85 [36] = experiment: Inhibition of p53 protein expression in human MNNG/HOS cells incubated for 24 hrs by Western blot analysis; format: functional, cell-based
HOS-TE85 [37] = experiment: Inhibition of MYOF protein expression in human MNNG/HOS cells incubated for 24 hrs by Western blot analysis; format: functional, cell-based
HOS-TE85 [38] = experiment: Effect on DDX5 protein expression in human MNNG/HOS cells by ABPP assay; format: functional, cell-based
HOS-TE85 [39] = experiment: Antiproliferative activity against human MNNG/HOS cells transfected with DDX5 shRNA assessed as inhibition of cell growth incubated for 72 hrs by CCK8 assay; format: functional, cell-based; conditions: HOS-TE85, 72 h

## COCCCCNC(=O)c1cccc(C2N(c3ccccn3)C(=O)CS2(=O)=O)n1 (centres undefined)
HOS-TE85 [1]
  IC50: 149 nM
[2]
  half-life at 0.1 µM: 90.6 min
[3]
  bioavailability at 0.1 µM: 45.8%
[4]
  half-life at 0.1 µM: 56.5 min

## CNC(=O)c1cc(Oc2ccc(NC(=O)Nc3ccc(Cl)c(C(F)(F)F)c3)cc2)ccn1 [SORAFENIB]
HOS-TE85 [5]
  IC50: 4810 nM
HOS-TE85 [6]
  inhibition: Active
HOS-TE85 [7]
  inhibition in vivo at 30 mg/kg: 39.8%
[8]
  half-life: 1310 min

## COCCCCNC(=O)c1cccc(C2N(c3ncccc3OC)C(=O)CS2(=O)=O)n1 (racemic)
HOS-TE85 [1]
  IC50: 217 nM
[2]
  half-life at 0.1 µM: 156 min
[3]
  bioavailability at 0.1 µM: 59.3%
[4]
  half-life at 0.1 µM: 73.8 min
143B
  IC50: 295 nM
SAOS-2
  IC50: 430 nM
SJSA-1
  IC50: 304 nM
MGC-803
  IC50: 394 nM
MG-63
  IC50: 1090 nM
A549
  IC50: 1890 nM
[9]
  IC50: 2130 nM
PC-3
  IC50: 4300 nM
HOS-TE85 [10]
  Ratio IC50: ~20
HOS-TE85 [11]
  inhibition: Dose-Dependent Effect
HOS-TE85 [12]
  inhibition: Active
[13]
  clearance: 126 mL/min/kg
[14]
  Cmax: 5420 ng/mL
[15]
  half-life: 13.3 min
[16]
  AUC(0-inf): 1660 ng·h/mL
[17]
  Cmax: 78.3 ng/mL
[18]
  half-life: 91.8 min
[19]
  AUC(0-inf): 9560 ng·h/mL
[20]
  bioavailability: 115%
HOS-TE85 [21]
  inhibition in vivo at 62.5 mg/kg: 44.6%
HOS-TE85 [22]
  Activity: Active
[23]
  Activity: Non-Toxic
[24]
  Activity: Non-Toxic
[25]
  Activity: Non-Toxic
[26]
  Activity: Non-Toxic
[27]
  Activity: Non-Toxic
[28]
  Activity: Non-Toxic
[29]
  Activity: Non-Toxic
[30]
  Activity: Non-Toxic
HOS-TE85 [31]
  Activity: inactive
HOS-TE85 [32]
  Activity: inactive
HOS-TE85 [33]
  Activity: inactive
HOS-TE85 [34]
  Activity: inactive
HOS-TE85 [35]
  Activity: inactive
HOS-TE85 [36]
  inhibition: inactive
HOS-TE85 [37]
  inhibition: inactive
HOS-TE85 [38]
  Activity: inactive
HOS-TE85 [39]
  IC50: 277 nM

## Cc1ccnc(N2C(=O)CS[C@@H]2c2cccc(C(=O)NCCCCn3cccn3)c2)c1
[2]
  half-life at 0.1 µM: 16.3 min
[3]
  bioavailability at 0.1 µM: 13.2%
[4]
  half-life at 0.1 µM: 5.36 min

## COC(=O)c1cccc(C2SCC(=O)N2c2ccccn2)n1 (centres undefined)
HOS-TE85 [1]
  IC50: > 1000 nM

## COc1cccnc1N1C(=O)CS(=O)(=O)C1c1cccc(C(=O)NCCCCc2ccccc2)n1 (centres undefined)
HOS-TE85 [1]
  IC50: 6 nM
[2]
  half-life at 0.1 µM: 2.12 min
[3]
  bioavailability at 0.1 µM: 1.94%
[4]
  half-life at 0.1 µM: 1.03 min

## COCCCCNC(=O)c1cccc([C@@H]2N(c3ccc(F)cn3)C(=O)CS2(=O)=O)n1
HOS-TE85 [1]
  IC50: 272 nM

## O=C(NCCCCc1ccccc1)c1cccc(C2N(c3ccccn3)C(=O)CS2(=O)=O)c1 (centres undefined)
HOS-TE85 [1]
  IC50: 25 nM

## COc1ccccc1N1C(=O)CS(=O)(=O)C1c1cccc(C(=O)NCCCCc2ccccc2)c1 (centres undefined)
HOS-TE85 [1]
  IC50: 31 nM

## O=C(NCCCCc1ccccc1)c1cccc(C2N(C3CC3)C(=O)CS2(=O)=O)c1 (centres undefined)
HOS-TE85 [1]
  IC50: > 10000 nM

## O=C(NCCCCc1ccccc1)c1cccc(C2N(C3CCCCC3)C(=O)CS2(=O)=O)c1 (centres undefined)
HOS-TE85 [1]
  IC50: 2020 nM

## COCCCCNC(=O)c1cccc(C2N(c3ncccc3C)C(=O)CS2(=O)=O)n1 (centres undefined)
HOS-TE85 [1]
  IC50: 702 nM
